Experiments:
SYK = molecular target: T1, SYK (Homo sapiens, UniProt P43405); experiment: Kinase panel, CaNDY 1 µM; type: biochemical; conditions: CaNDY 1 µM relative to DMSO
T1 construct: purchased Carna Biosciences

DYRK1A = DYRK1A (Homo sapiens, UniProt Q13627); experiment: In vitro kinase assay, substrate DYRKtide-F; type: biochemical; design: full-length human recombinant kinases were expressed using a baculovirus expression system as amino-terminal GST-fusion proteins; GST (N); purchased Carna Biosciences; host or cells: baculovirus expression system; conditions: 25 μM ATP, 1 μM DYRKtide-F; read-out: IC50, substrate phosphorylation
Excerpt: Detailed information on the assay conditions is available on the website of Carna Biosciences (http://www.carnabio.com/english/index.html; Kobe, Japan). In brief, full-length human recombinant kinases were expressed using a baculovirus expression system as amino-terminal GST-fusion proteins, and purified by glutathione-Sepharose chromatography. The GenBank accession numbers of DYRK1A, DYRK1B, DYRK2, and DYRK3 were NP_001387.2, NP_004705.1, NP_003574.1, and NP_003573.2. […] For each compound, a DMSO solution was diluted in assay buffer to yield a final concentration of 1% DMSO. After incubation for one hour at room temperature, substrate phosphorylation was analyzed by electrophoretic separation of the substrate and products using a Caliper LC3000 platform (Caliper Life Sciences, Mountain View, CA, USA). The phosphorylated product (P)/(P + substrate) ratio was calculated at each concentration of each small molecule and the percent inhibition was expressed relative to a control assay in the absence of the small molecule. […] The IC50 of each compound was calculated by interpolation on a log-concentration-response curve fitted with a four-parameter logistic equation.

endogenous DYRK1A = molecular target: T2, endogenous DYRK1A (Homo sapiens, UniProt Q13627); experiment: Western blot of endogenous DYRK1A protein in HEK293 cells; type: cell-based; conditions: CaNDY 2 μM, 4 days
T2 construct: endogenous in cells; host or cells: HEK293
Description: We investigated whether CaNDY destabilizes DYRK1A as ganetespib does. […] Next we examined whether CaNDY decreased endogenous DYRK1A protein. HEK293 cells were cultured for 0–4 days with CaNDY (2 μM) and then subjected to SDS-PAGE followed by Western blot analysis using antibodies against DYRK1A and GAPDH. […] The treated cells were also subjected to reverse transcription followed by quantitative PCR analysis.
(§1) Western blot analysis was performed using the antibodies described above. In brief, total cell lysates were separated by SDS-PAGE (5–20% gels; ATTO, Tokyo, Japan) under reducing conditions and then transferred to a PVDF membrane (PALL, SP, Brazil). Antibody reactions were performed with Can Get Signal® Immunoreaction Enhancer Solution (Toyobo). Peroxidase activities on the membrane were visualized with ECL Western Blotting Detection Reagents (GE Healthcare) or ImmunoStar® LD (Wako Pure Chemical Industries, Osaka, Japan), and a ChemiDoc^TM MP Imaging System (Bio-Rad, Hercules, CA, USA).

RSK1 = molecular target: T3, RSK1 (Homo sapiens, UniProt Q15418); experiment: Kinase panel, CaNDY 1 µM; type: biochemical; conditions: CaNDY 1 µM relative to DMSO
T3 construct: purchased Carna Biosciences

FYN = molecular target: T4, FYN (Homo sapiens, UniProt P06241); experiment: Kinase panel, CaNDY 1 µM; type: biochemical; conditions: CaNDY 1 µM relative to DMSO
T4 construct: purchased Carna Biosciences

MAP2K6_Cascade = molecular target: T5, MAP2K6_Cascade (Homo sapiens, UniProt P52564); experiment: Kinase panel, CaNDY 1 µM; type: biochemical; conditions: CaNDY 1 µM relative to DMSO
T5 construct: purchased Carna Biosciences

PDGFRα(T674I) = molecular target: T6, PDGFRα(T674I) (Homo sapiens, UniProt P16234, T674I); experiment: Kinase panel, CaNDY 1 µM; type: biochemical; conditions: CaNDY 1 µM relative to DMSO
T6 construct: purchased Carna Biosciences

FGFR3(K650E) = molecular target: T7, FGFR3(K650E) (Homo sapiens, UniProt P22607, K650E); experiment: Kinase panel, CaNDY 1 µM; type: biochemical; conditions: CaNDY 1 µM relative to DMSO
T7 construct: purchased Carna Biosciences

other 19 kinases = experiment: Western blot of other kinases in HEK293 cells; type: cell-based; conditions: CaNDY 2 μM, 4 days
Description: To check selectivity of CaNDY for other kinases, we first examined protein expression of several kinases in HEK293 cells treated with CaNDY (2 μM) for 4 days. […] Third, protein expression of these kinases targeted by CaNDY (DYRK1A, DYRK1B, CLK1, and Haspin) was reassessed by Western blot analysis as performed in Fig. 7b.
as §1

MAP3K4_Cascade = molecular target: T8, MAP3K4_Cascade (Homo sapiens, UniProt Q9Y6R4); experiment: Kinase panel, CaNDY 1 µM; type: biochemical; conditions: CaNDY 1 µM relative to DMSO
T8 construct: purchased Carna Biosciences

MLK1_Cascade = molecular target: T9, MLK1_Cascade (Homo sapiens, UniProt P80192); experiment: Kinase panel, CaNDY 1 µM; type: biochemical; conditions: CaNDY 1 µM relative to DMSO
T9 construct: purchased Carna Biosciences

TRKC = molecular target: T10, TRKC (Homo sapiens, UniProt Q16288); experiment: Kinase panel, CaNDY 1 µM; type: biochemical; conditions: CaNDY 1 µM relative to DMSO
T10 construct: purchased Carna Biosciences

FLT1 = molecular target: T11, FLT1 (Homo sapiens, UniProt P17948); experiment: Kinase panel, CaNDY 1 µM; type: biochemical; conditions: CaNDY 1 µM relative to DMSO
T11 construct: purchased Carna Biosciences

MAP2K5_Cascade = molecular target: T12, MAP2K5_Cascade (Homo sapiens, UniProt Q13163); experiment: Kinase panel, CaNDY 1 µM; type: biochemical; conditions: CaNDY 1 µM relative to DMSO
T12 construct: purchased Carna Biosciences

MAP3K2_Cascade = molecular target: T13, MAP3K2_Cascade (Homo sapiens, UniProt Q9Y2U5); experiment: Kinase panel, CaNDY 1 µM; type: biochemical; conditions: CaNDY 1 µM relative to DMSO
T13 construct: purchased Carna Biosciences

FGFR4(V550L) = molecular target: T14, FGFR4(V550L) (Homo sapiens, UniProt P22455, V550L); experiment: Kinase panel, CaNDY 1 µM; type: biochemical; conditions: CaNDY 1 µM relative to DMSO
T14 construct: purchased Carna Biosciences

HGK = molecular target: T15, HGK (Homo sapiens, UniProt O95819); experiment: Kinase panel, CaNDY 1 µM; type: biochemical; conditions: CaNDY 1 µM relative to DMSO
T15 construct: purchased Carna Biosciences

MAP3K1_Cascade = molecular target: T16, MAP3K1_Cascade (Homo sapiens, UniProt Q13233); experiment: Kinase panel, CaNDY 1 µM; type: biochemical; conditions: CaNDY 1 µM relative to DMSO
T16 construct: purchased Carna Biosciences

TIE2 = molecular target: T17, TIE2 (Homo sapiens, UniProt Q02763); experiment: Kinase panel, CaNDY 1 µM; type: biochemical; conditions: CaNDY 1 µM relative to DMSO
T17 construct: purchased Carna Biosciences

FGFR4(N535K) = molecular target: T18, FGFR4(N535K) (Homo sapiens, UniProt P22455, N535K); experiment: Kinase panel, CaNDY 1 µM; type: biochemical; conditions: CaNDY 1 µM relative to DMSO
T18 construct: purchased Carna Biosciences

PKCγ = molecular target: T19, PKCγ (Homo sapiens, UniProt P05129); experiment: Kinase panel, CaNDY 1 µM; type: biochemical; conditions: CaNDY 1 µM relative to DMSO
T19 construct: purchased Carna Biosciences

CK2α1/β = molecular target: T20, CK2α1/β (Homo sapiens, UniProt P68400); experiment: Kinase panel, CaNDY 1 µM; type: biochemical
T20 construct: purchased Carna Biosciences

ROS = molecular target: T21, ROS (Homo sapiens, UniProt P08922); experiment: Kinase panel, CaNDY 1 µM; type: biochemical; conditions: CaNDY 1 µM relative to DMSO
T21 construct: purchased Carna Biosciences

IRAK1 = molecular target: T22, IRAK1 (Homo sapiens, UniProt P51617); experiment: Kinase panel, CaNDY 1 µM; type: biochemical; conditions: CaNDY 1 µM relative to DMSO
T22 construct: purchased Carna Biosciences

RSK4 = molecular target: T23, RSK4 (Homo sapiens, UniProt Q9UK32); experiment: Kinase panel, CaNDY 1 µM; type: biochemical; conditions: CaNDY 1 µM relative to DMSO
T23 construct: purchased Carna Biosciences

T20 sequence (P68400 whole entry): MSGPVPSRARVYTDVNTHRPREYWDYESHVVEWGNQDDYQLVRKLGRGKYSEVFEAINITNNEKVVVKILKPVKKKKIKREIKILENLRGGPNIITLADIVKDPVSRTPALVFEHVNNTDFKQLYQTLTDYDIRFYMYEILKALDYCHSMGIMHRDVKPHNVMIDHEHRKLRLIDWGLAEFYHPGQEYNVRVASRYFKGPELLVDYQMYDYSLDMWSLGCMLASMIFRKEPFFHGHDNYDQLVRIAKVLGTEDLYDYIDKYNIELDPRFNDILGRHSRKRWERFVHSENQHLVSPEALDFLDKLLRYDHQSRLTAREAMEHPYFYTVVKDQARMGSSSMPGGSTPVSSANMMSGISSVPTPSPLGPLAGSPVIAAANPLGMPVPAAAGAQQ
T20 sequence (P67870 whole entry partner): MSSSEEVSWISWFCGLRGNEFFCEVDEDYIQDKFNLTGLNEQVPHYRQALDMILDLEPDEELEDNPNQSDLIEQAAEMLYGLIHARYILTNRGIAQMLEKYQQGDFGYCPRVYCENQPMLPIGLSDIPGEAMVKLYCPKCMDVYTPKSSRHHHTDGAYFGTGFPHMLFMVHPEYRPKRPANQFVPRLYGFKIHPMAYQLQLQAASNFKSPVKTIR
T6 sequence (P16234 24-1089 T674I): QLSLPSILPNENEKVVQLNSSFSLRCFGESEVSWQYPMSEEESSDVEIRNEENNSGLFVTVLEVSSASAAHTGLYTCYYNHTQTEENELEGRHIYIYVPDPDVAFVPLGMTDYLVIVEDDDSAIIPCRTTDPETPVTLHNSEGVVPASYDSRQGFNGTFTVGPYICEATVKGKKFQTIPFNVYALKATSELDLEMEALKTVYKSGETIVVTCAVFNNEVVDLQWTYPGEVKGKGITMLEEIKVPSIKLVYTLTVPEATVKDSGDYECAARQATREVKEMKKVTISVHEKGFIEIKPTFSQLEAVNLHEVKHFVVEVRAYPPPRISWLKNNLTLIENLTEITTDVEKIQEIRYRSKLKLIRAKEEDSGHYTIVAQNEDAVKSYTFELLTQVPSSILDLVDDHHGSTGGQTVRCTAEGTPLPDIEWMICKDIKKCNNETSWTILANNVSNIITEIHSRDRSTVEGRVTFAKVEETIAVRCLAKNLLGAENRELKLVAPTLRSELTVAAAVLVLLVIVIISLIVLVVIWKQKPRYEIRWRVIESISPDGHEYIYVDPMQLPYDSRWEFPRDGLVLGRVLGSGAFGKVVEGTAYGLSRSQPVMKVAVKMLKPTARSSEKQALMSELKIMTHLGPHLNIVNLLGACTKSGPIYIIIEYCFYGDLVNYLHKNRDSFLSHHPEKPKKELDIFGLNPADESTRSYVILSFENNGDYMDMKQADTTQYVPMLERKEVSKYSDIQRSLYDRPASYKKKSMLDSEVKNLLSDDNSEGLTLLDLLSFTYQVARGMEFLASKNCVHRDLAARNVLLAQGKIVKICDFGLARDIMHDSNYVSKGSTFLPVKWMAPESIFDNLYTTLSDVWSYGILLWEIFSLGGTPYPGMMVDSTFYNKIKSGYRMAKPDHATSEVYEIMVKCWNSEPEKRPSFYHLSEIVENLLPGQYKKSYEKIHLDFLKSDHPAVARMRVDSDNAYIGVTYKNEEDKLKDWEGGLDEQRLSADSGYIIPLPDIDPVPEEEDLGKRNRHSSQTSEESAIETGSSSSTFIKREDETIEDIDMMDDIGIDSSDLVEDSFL
T13 sequence (Q9Y2U5 whole entry): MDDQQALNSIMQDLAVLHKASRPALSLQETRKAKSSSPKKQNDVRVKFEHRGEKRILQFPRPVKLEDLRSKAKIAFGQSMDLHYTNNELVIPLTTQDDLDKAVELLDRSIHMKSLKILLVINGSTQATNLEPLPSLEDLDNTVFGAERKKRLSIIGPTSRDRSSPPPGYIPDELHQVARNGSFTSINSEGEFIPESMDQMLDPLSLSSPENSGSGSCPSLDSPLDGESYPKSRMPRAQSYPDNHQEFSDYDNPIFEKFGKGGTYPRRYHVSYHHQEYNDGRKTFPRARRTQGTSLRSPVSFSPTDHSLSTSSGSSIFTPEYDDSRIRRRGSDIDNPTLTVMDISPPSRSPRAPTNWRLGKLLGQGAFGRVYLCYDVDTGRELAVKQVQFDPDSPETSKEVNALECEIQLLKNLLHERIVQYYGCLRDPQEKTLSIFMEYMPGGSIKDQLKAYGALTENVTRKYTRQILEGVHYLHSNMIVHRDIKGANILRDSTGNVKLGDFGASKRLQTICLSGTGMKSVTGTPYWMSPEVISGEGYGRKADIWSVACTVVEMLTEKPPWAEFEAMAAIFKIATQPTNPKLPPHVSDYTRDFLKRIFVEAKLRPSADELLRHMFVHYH
T16 sequence (Q13233 whole entry): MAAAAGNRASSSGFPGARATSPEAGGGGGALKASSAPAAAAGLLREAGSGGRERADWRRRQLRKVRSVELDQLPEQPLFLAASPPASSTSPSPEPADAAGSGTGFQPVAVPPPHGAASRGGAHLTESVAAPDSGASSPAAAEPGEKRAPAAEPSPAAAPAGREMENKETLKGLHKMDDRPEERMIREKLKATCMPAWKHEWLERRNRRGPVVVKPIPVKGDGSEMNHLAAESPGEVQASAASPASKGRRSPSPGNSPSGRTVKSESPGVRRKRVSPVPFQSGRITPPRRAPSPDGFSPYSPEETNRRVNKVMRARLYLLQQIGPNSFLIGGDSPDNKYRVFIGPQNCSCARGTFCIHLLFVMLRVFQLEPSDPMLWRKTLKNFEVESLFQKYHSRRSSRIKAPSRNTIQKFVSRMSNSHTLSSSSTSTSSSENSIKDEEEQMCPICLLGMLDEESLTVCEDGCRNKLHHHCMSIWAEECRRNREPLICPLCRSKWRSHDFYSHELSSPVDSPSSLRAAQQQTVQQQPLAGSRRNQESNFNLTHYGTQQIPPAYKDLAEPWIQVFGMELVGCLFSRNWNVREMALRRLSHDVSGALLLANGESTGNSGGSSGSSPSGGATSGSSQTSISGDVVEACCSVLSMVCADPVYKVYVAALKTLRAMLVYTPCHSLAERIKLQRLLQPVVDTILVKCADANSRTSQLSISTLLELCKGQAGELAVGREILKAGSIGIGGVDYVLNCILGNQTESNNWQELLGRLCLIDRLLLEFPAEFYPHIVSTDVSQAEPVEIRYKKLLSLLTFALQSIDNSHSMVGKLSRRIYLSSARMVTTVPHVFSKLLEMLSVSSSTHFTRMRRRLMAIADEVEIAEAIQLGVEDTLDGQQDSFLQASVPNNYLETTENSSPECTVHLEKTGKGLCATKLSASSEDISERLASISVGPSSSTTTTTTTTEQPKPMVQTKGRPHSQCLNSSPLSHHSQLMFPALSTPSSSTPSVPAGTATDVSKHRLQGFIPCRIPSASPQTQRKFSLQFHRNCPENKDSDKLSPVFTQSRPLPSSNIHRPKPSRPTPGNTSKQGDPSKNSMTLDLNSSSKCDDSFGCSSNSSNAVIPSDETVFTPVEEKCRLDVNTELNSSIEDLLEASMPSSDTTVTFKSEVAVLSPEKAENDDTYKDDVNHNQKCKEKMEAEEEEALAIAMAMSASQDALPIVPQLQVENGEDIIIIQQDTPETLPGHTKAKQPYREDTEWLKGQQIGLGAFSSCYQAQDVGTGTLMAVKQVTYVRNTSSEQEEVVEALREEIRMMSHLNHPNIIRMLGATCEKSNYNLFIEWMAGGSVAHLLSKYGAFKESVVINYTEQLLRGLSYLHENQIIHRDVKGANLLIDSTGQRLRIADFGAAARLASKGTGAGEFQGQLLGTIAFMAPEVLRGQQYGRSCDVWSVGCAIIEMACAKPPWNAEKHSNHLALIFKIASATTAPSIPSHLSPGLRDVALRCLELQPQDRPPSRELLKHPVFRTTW
T9 sequence (P80192 whole entry): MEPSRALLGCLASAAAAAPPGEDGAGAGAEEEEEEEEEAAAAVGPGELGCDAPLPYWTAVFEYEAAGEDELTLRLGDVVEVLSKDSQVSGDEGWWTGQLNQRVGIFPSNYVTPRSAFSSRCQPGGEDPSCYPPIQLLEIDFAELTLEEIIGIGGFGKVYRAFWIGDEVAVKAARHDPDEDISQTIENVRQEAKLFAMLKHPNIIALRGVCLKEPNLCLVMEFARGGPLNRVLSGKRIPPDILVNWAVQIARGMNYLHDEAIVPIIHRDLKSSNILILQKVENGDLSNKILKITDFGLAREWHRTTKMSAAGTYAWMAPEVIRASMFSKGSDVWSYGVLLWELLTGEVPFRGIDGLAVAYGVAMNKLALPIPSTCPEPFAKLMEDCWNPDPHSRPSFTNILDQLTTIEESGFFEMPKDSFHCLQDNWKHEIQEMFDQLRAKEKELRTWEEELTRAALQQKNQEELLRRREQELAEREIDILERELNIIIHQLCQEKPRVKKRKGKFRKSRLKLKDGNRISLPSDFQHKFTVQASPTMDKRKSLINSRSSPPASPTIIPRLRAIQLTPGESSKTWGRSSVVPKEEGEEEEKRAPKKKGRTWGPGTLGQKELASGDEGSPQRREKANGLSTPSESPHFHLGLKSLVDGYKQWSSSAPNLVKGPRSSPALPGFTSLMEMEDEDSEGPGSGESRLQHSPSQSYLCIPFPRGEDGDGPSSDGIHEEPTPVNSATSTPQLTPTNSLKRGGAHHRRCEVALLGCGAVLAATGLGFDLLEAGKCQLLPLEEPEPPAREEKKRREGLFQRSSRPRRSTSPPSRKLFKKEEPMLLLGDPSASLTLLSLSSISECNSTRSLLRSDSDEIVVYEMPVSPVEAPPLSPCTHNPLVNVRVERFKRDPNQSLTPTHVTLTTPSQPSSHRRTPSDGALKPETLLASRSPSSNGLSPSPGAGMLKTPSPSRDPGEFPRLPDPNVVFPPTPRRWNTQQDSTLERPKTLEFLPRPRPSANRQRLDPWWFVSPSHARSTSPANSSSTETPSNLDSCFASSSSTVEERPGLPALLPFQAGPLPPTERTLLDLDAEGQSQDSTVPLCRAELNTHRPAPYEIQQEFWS

[H]/N=C1/NC(=O)C(=Cc2ccc3c(c2)CCO3)S1 [CaNDY, (Z)-5-[(2,3-dihydrobenzofuran-5-yl)methylene]-2-iminothiazolidin-4-one]
%Activity (SYK): 93.7%
IC50 (DYRK1A): 7.9 nM
accumulation of endogenous DYRK1A (endogenous DYRK1A): prevented accumulation of endogenous DYRK1A
protein expression of DYRK1A (reassessed) (endogenous DYRK1A; Fig. 7d): decreased expression
remaining activity at 1 µM (RSK1): 91.2%
remaining activity at 1 µM (FYN): 102%
remaining activity at 1 µM (MAP2K6_Cascade): 99.5%
remaining activity at 1 µM (PDGFRα(T674I)): 94%
remaining activity at 1 µM (FGFR3(K650E)): 101%
protein expression of other kinases (other 19 kinases): did not decrease the other 19 kinases
remaining activity at 1 µM (MAP3K4_Cascade): 101%
remaining activity at 1 µM (MLK1_Cascade): 99.9%
remaining activity at 1 µM (TRKC): 101%
remaining activity at 1 µM (FLT1): 102%
remaining activity at 1 µM (MAP2K5_Cascade): 101%
remaining activity at 1 µM (MAP3K2_Cascade): 102%
remaining activity at 1 µM (FGFR4(V550L)): 105%
remaining activity at 1 µM (HGK): 42.1%
remaining activity at 1 µM (MAP3K1_Cascade): 99%
remaining activity at 1 µM (TIE2): 101%
remaining activity at 1 µM (FGFR4(N535K)): 100%
remaining activity at 1 µM (PKCγ): 90.6%
remaining activity at 1 µM (CK2α1/β; CK2α1/β, CaNDY 1 µM relative to DMSO): 34.7%
inhibition at 1 µM (CK2α1/β; CK2α, 1 μM CaNDY, read-out: percentage inhibition): 65%
remaining activity at 1 µM (ROS): 103%
remaining activity at 1 µM (IRAK1): 87.4%
%Activity (RSK4): 94.6%

— PMC4522657, “Identification of a DYRK1A Inhibitor that Induces Degradation of the Target Kinase using Co-chaperone CDC37 fused with Luciferase nanoKAZ” (Scientific Reports, 2015)
